Assay results taken from patent US20180153826A1, “MATERIALS AND METHODS FOR THE TREATMENT OF CYSTIC FIBROSIS” (UNIVERSITY OF FLORIDA RESEARCH FOUNDATION, INC., priority 2015, published 2018).

How the values were obtained:
Cl^−/HCO3^− exchange = Cl^−/HCO3^− exchange activity (Cl^−-dependent HCO3^− secretion); parameters: species or system rat; conditions: 10 μM, added to serosal side
Protocol: (§1) Stripped mucosal sheets were mounted into Ussing chambers (window area=0.3-0.5 cm^2, Physiologic Instruments, San Diego, Calif.). The mucosal side of tissue was bathed with an unbuffered HCO3^−-free Cl^− Ringer solution (see Table 2 for detailed composition) circulated by a gas lift with 100% O2 while the serosal side was bathed with buffered Cl^− Ringer solution (pH 7.4) that contained 25 mM HCO3^− and gassed with 5% CO2/95% O2. Each side contained 3-5 ml of solution and the temperature of the solution was adjusted to and maintained at 37° C. by heated water-jacketed reservoirs. […]
Two types of approaches were used in the measurement of colonic HCO3^− secretion, namely, measurement of lumen pH or pH stat titration of net alkalinization by colonic mucosa. […] The amount of the acid delivered per unit time per surface area was used to quantitate HCO3^− secretion by the mucosa. Measurements were recorded continuously and mean values for consecutive 5 or 10 min periods were averaged. The rate of HCO3^− secretion (JHCO3) is expressed as μEq/hr/cm^2. The short-circuit current (Isc) was measured in microamperes (μA) and converted into μEq/hr/cm^2. Tissue resistance (R, Ω cm^2) was calculated from Ohm's law. […]

[1] = tested on: colon mucosa of wild type mice; experiment: HCO3^− secretion in colon mucosa of wild type (CaSR^+/+) mice; parameters: species or system mouse
Protocol: FIGS. 13A-13F. […] Colonic mucosa from wild type (CaSR^+/+) (A-C) and knockout (CaSR^-/-) mice (D-F) were isolated and treated, and activities of the three HCO3^- transporters assayed as in rats. Data are means±SEM of 4-6 experiments. *p<0.05 vs. control (1st bar). Experiments were performed using non-fasting male Sprague-Dawley rats and C57BL/6 mice. Rats weighting 100-400 g were obtained from Charles River Laboratories. Mice lacking CaSR expression in intestinal epithelial cells (CaSR^-/-) and their CaSR^+/+ littermates were bred and maintained. CaSR^-/- mice were generated as previously described. Briefly, CaSR flox/flox mice were bred with transgenic mice expressing Cre Recombinase under the control of the villin 1 promoter and genotyped prior to all experiments after an approximate 10-12 generations. Mice were used at 5-10 weeks of age. Animals were fed and maintained on regular chow (Harlan) with free access to water before sacrifice. Animals were sacrificed with standard CO2 inhalation followed by cervical dislocation. The colons were isolated, cut open along the mesenteric border into a flat sheet, and flushed with ice-cold Ringer solutions. Mucosa from the distal colon were carefully hand-stripped off of serosal, muscular and submucosal layers as described and a pair of adjacent mucosal segments were incised and mounted into Ussing chambers. In some experiments, stripped mucosa was incised longitudinally into two equal pieces in order to facilitate comparisons between control and treatment. […] To verify that the effects of […] occurred via the CaSR, additional studies on the effect of […] were performed in intestinal epithelium-specific CaSR knockout mice (FIG. 13). Intestinal epithelium-specific CaSR knockout mice were used together with their wild type littermates.

SCFA/HCO3^− exchange = SCFA/HCO3^− exchange activity (isobutyrate-dependent HCO3^− secretion); parameters: species or system rat; conditions: 10 μM serosa; 25 mM isobutyrate lumen
Protocol: as §1
Two types of approaches were used in the measurement of colonic HCO3^− secretion, namely, measurement of lumen pH or pH stat titration of net alkalinization by colonic mucosa. […] The amount of the acid delivered per unit time per surface area was used to quantitate HCO3^− secretion by the mucosa. Measurements were recorded continuously and mean values for consecutive 5 or 10 min periods were averaged. The rate of HCO3^− secretion (JHCO3) is expressed as μEq/hr/cm^2. The short-circuit current (Isc) was measured in microamperes (μA) and converted into μEq/hr/cm^2. Tissue resistance (R, Ω cm^2) was calculated from Ohm's law.
SCFA/HCO3^− exchange activity was calculated as ΔJHCO3 (the difference between JHCO3 in the presence minus absence of luminal isobutyrate).

[2] = tested on: cAMP-dependent HCO3^− secretion; experiment: Cyclic nucleotide (cAMP)-dependent HCO3^− secretion, lumen Cl^−/SCFA-free; parameters: species or system rat
Protocol: Stripped mucosal sheets were mounted into Ussing chambers (window area=0.3-0.5 cm^2, Physiologic Instruments, San Diego, Calif.). The mucosal side of tissue was bathed with an unbuffered HCO3^--free Cl^- Ringer solution (see Table 2 for detailed composition) circulated by a gas lift with 100% O2 while the serosal side was bathed with buffered Cl^- Ringer solution (pH 7.4) that contained 25 mM HCO3^- and gassed with 5% CO2/95% O2. Each side contained 3-5 ml of solution and the temperature of the solution was adjusted to and maintained at 37° C. by heated water-jacketed reservoirs. Experiments were performed under short-circuit conditions (Voltage-Current Clamp, VCC MC8; Physiologic Instruments, San Diego, Calif.) to maintain the transepithelial potentials at 0 mV, except for brief interruption at 20-second intervals for recording of open-circuit potential (VT, mV). Two types of approaches were used in the measurement of colonic HCO3^- secretion, namely, measurement of lumen pH or pH stat titration of net alkalinization by colonic mucosa. […] Radiometer Analytical, Villeurbanne, France). The amount of the acid delivered per unit time per surface area was used to quantitate HCO3^- secretion by the mucosa. Measurements were recorded continuously and mean values for consecutive 5 or 10 min periods were averaged. […] The short-circuit current (Isc) was measured in microamperes (μA) and converted into μEq/hr/cm^2. Tissue resistance (R, Ω cm^2) was calculated from Ohm's law. Colon segments were prepared and treated as in the secretagogue-induced HCO3^- secretion experiments except that they were bathed luminally with HCO3^--free Ringer solution that contained no isobutyrate and no Cl^-. Cyclic nucleotide-dependent HCO3^- secretion was calculated as […] (the difference between JHCO3 after minus JHCO3 before the addition of forskolin). When inhibitor was used, it was added at 30 min before […] or forskolin.

## COc1cccc([C@@H](C)NCCCc2ccccc2Cl)c1.Cl [R568, 2-Chloro-N-[(1R)-1-(3-methoxyphenyl)ethyl]-benzenepropanamine hydrochloride]
Cl^−/HCO3^− exchange
  Cl^−/HCO3^− exchange activity: stimulation
[1]
  Cl^−-dependent HCO3^− secretion: stimulated
  SCFA-dependent HCO3^− secretion: stimulated
  cAMP-dependent HCO3^− secretion: inhibited
SCFA/HCO3^− exchange
  isobutyrate-dependent HCO3^− secretion: significantly stimulated
[2]; 10 μM serosa after forskolin, lumen Cl^−/SCFA-free
  effect on FSK-induced HCO3^− secretion: almost completely reversed
[2]; no serosal HCO3^− (data not shown)
  Isc response in the absence of serosal HCO3^−: failed to stimulate or to inhibit
[2]; subsequent addition after forskolin, lumen Cl^−-free
  effect on forskolin-stimulated Isc: inhibited
